Test results reported in patent US8372967B2, “Compounds and methods for modulating expression of GCCR” (Isis Pharmaceuticals, Inc., priority 2006, dated 2013).
Strand notation (5' to 3'): a small letter for the sugar, then the base; units joined by * are phosphorothioate-linked, units joined directly phosphodiester-linked; [ ] holds rarer units or linkages, { } end groups; capitals alone tell only the bases. [PAM-N] = nucleoside carrying a 2'-(butylacetamido)-palmitamide group (palmitic acid C16 conjugate) (N: the base); e = 2'-O-(2-methoxyethyl) (MOE); l = locked nucleic acid (LNA); [5mC] = 5-methylcytosine; d = 2'-deoxy (DNA)

Assays:
[1] = test system: GCGR mRNA; experiment: Antisense inhibition of GCGR in HepG2 cells (Table 79); format: cell-based, human; settings: for percent reduction in GCGR mRNA: HepG2 cells, relative to untreated control cells
Method: Short antisense compounds targeted to a GCGR nucleic acid were tested for their effects on GCGR mRNA in vitro.
(§1) Cultured HepG2 cells at a density of 10000 cells per well in a 96-well plate were treated as described herein with 25, 50, 100 or 200 nM of antisense oligonucleotide. After the treatment period, RNA was isolated from the cells and GCGR mRNA levels were measured by quantitative real-time PCR, as described herein. GCGR mRNA levels were adjusted according to total RNA content as measured by RIBOGREEN®. Results are presented as percent reduction in GCGR mRNA, relative to untreated control cells.

[2] = test system: monkey GCGR mRNA; experiment: Antisense inhibition of GCGR in primary monkey hepatocytes (Table 80); format: cell-based; settings: relative to untreated control cells
Method: Additional short antisense compounds targeted to a GCGR nucleic acid were tested for their effects on monkey GCGR mRNA in vitro. Cultured primary monkey hepatocytes were treated as described herein with 25, 50, 100 or 200 nM of short antisense compound. After the treatment period, RNA was isolated from the cells and GCGR mRNA levels were measured by quantitative real-time PCR, as described herein. GCGR mRNA levels were adjusted according to total RNA content as measured by RIBOGREEN®. Results are presented in Table 80 as percent reduction in GCGR mRNA, relative to untreated control cells.

[3] = Plasma glucose in ZDF rat (Table 71); format: in vivo
Method: (§2) ISIS 388625, 388626 and control oligo ISIS 388628 were analyzed for their effect on ZDF rat plasma glucose levels and HbA1c. The leptin receptor deficient Zucker diabetic fatty (ZDF) rat is a useful model for the investigation of type 2 diabetes. Diabetes develops spontaneously in these male rats at ages 8-10 weeks, and is associated with hyperphagia, polyuria, polydipsia, and impaired weight gain, symptoms which parallel the clinical symptoms of diabetes (Phillips M S, et al., 1996, Nat Genet. 13, 18-19). Six week old ZDF rats were injected intraperitoneally with short antisense compound at a dose of 400 nM/kg once a week for twelve weeks. Data are illustrated in Tables 71 and 72.

[4] = HbA1c status in ZDF rat (Table 72); format: in vivo; settings: for Percentage HbA1c: ZDF rat, 400 nM/kg i.p. once a week
Method: as §2

[5] = test system: ApoB mRNA; experiment: ApoB mRNA in liver and estimated ED50, compounds comprising palmitic acid conjugates (Table 95); format: in vivo, mouse; settings: ApoB mRNA in liver, Balb/c mice, relative to saline
Method: (§3) 0.4, and 0.16 umol/kg. Each dose group consisted of four animals. A 5-10-5 MOE gapmer was used for a control treatment. Mice were sacrificed approximately 48 hours following the final dose. Liver tissue was collected for RNA isolation, and blood was collected for serum chemistry analyses. ApoB mRNA levels were measured by real-time PCR as described herein. ApoB mRNA levels were normalized to RNA levels as determined by RIBOGREEN, and are presented in Table 95 as percent inhibition relative to ApoB mRNA levels in saline-treated control animals.
At the 2.5 umol/kg dose, ApoB inhibition by the short antisense compounds was greater than observed with a 5-10-5 MOE gapmer at an equivalent dose. […] Triglycerides were reduced at the 2.5 and […] doses of ISIS 387462 and ISIS 391872.

[6] = test system: PTP1B mRNA; experiment: Antisense inhibition of human PTP1B in HepG2 cells, 25 nM (Table 85); format: cell-based
Method: as §1, with “Short antisense compounds targeted to a PTP1B nucleic acid were tested for their effects on PTP1B mRNA in vitro. Cultured” for “Cultured”, “treated” for “treated as described herein”, “25” for “25, 50, 100 or 200”, “PTP1B” for “GCGR”, “inhibition (% Ihib) of PTP1B,” for “reduction in GCGR mRNA,”

[7] = test system: PTP1B mRNA; experiment: Dose response for human PTP1B in HuVEC cells, PPS 198 and PPS 3000 (Tables 86, 87); format: cell-based
Method: Human vascular endothelial (HuVEC) cells were plated at a density of 5000 cells per well and treated as described herein with nM concentrations of short antisense compound as indicated in Table 86. After the treatment period, RNA was isolated from the cells and PTP1B mRNA levels were measured by quantitative real-time PCR, as described herein. PTP1B mRNA levels were adjusted according to total RNA content as measured by RIBOGREEN®. Two different human PTP1B primer probe sets were used to measure mRNA levels. Results with Primer Probe Set (PPS) 198 are shown in Table 86, and results with Primer Probe Set (PPS) 3000 are shown in Table 87. Results are presented as percent inhibition of PTP1B mRNA expression relative to untreated control cells.

[8] = test system: PTP1B mRNA; experiment: Antisense inhibition of human PTP1B in HuVEC cells, 3 nM (Table 84); format: cell-based
Method: Short antisense compounds targeted to a PTP1B nucleic acid were tested for their effects on PTP1B mRNA in vitro. Cultured HuVEC cells at a density of 5000 cells per well in a 96-well plate were treated as described herein with 3 nM of short antisense compound. After the treatment period, RNA was isolated from the cells and PTP1B mRNA levels were measured by quantitative real-time PCR, as described herein. PTP1B mRNA levels were adjusted according to total RNA content as measured by RIBOGREEN®. Results are presented as percent inhibition of PTP1B (% Inhib), relative to untreated control cells.

[9] = test system: mouse SGLT2 mRNA; experiment: Mouse SGLT2 mRNA in kidney, additional 1-10-1 and 2-8-2 MOE gapmers (Table 68); format: in vivo; settings: Balb/c mouse kidney
Method: 1-10-1 and 2-8-2 MOE gapmer short antisense compounds were designed to target different regions of the mouse SGLT2 RNA but have complementarity across species. […] All cytidine residues are 5-methylcytidines.
The short antisense compounds were analyzed for their effect on mouse SGLT2 mRNA levels in vivo. Data was taken from three experiments in which male 6-week old Balb/c mice were dosed twice per week for three weeks with 0.5, 0.1, or 0.02 umol/kg of either a 1-10-1 or 2-8-2 MOE gapmer given by intraperitoneal injection. Mice were sacrificed 48 hours following last administration and evaluated for SGLT2 levels in kidney. Target levels were determined by RT, real-time PCR as described by other examples herein. PCR results were normalized to an internal ISIS control.

[10] = test system: ApoB mRNA; experiment: ApoB mRNA in liver and ED50, single dose of BNA short antisense compounds (Table 92); format: in vivo, mouse; settings: ApoB mRNA in liver, single i.p. injection
Method: as §3, with “The short antisense compounds tested were ISIS 387462” for “0.4,”, “ISIS 398296.” for “0.16 umol/kg.”, “92” for “95”
At the 8 umol/kg dose, ApoB inhibition by the short antisense compounds was greater than observed with a 5-10-5 MOE gapmer at an equivalent dose. […] Triglycerides were reduced at the highest dose.

[11] = single i.p. injection 0.16 umol/kg
[12] = single i.p. injection 0.4 umol/kg
[13] = single i.p. injection 1.0 umol/kg
[14] = ZDF rats, 400 nM/kg i.p. once a week for twelve weeks, compared to PBS and control

327161 (antisense eA*eG*e[5mC]*dT*dG*d[5mC]*dT*dG*dT*dA*d[5mC]*eA*eT*e[5mC]) [compound 327161]
percent reduction in GCGR mRNA ([1]; 25 nM): −36%
percent reduction in GCGR mRNA ([1]; 50 nM): −30%
percent reduction in GCGR mRNA ([1]; 100 nM): −33%
percent reduction in GCGR mRNA ([1]; 200 nM): −64%
percent reduction in GCGR mRNA ([2]; 25 nM): −19%
percent reduction in GCGR mRNA ([2]; 50 nM): −33%
percent reduction in GCGR mRNA ([2]; 100 nM): −55%
percent reduction in GCGR mRNA ([2]; 200 nM): −54%

388626 (eG*eG*d[5mC]*dA*dT*dG*dA*dG*d[5mC]*dT*eT*e[5mC]) [compound 388626]
Plasma glucose levels ([3]; Day 10, ZDF rat, 400 nM/kg i.p. once a week): 434.7 mg/dL
Plasma glucose levels ([3]; Day 40, ZDF rat, 400 nM/kg i.p. once a week): 300.5 mg/dL
Plasma glucose levels ([3]; Day 55, ZDF rat, 400 nM/kg i.p. once a week): 219.8 mg/dL
Plasma glucose levels ([3]; Day 66, ZDF rat, 400 nM/kg i.p. once a week): 379.8 mg/dL
Percentage HbA1c ([4]; Day 40): 6.6%
Percentage HbA1c ([4]; Day 55): 5.9%
Percentage HbA1c ([4]; Day 68): 4.0%

391871 ([PAM-G]*eG*dT*dA*dC*dA*dT*dG*dG*dA*dA*dG*eT*e[5mC]) [compound 391871]
% Inhib [5, 11]: 0%
% Inhib [5, 12]: 5%
% Inhib [5, 13]: 18%

391872 ([PAM-G]*lG*dT*dA*dC*dA*dT*dG*dG*dA*dA*dG*lT*l[5mC]) [compound 391872]
% Inhib [5, 11]: 18%
% Inhib [5, 12]: 50%
% Inhib [5, 13]: 92%

399301 (GTGTGCACACAGCT; all C 5-methyl, all phosphorothioate, sugars by position not given here; further chemistry not fully specified) [compound 399301]
% Inhib [6]: 43%
% Inhibition ([7]; PPS 198, 1.11 nM): 8%
% Inhibition ([7]; PPS 198, 3.33 nM): 63%
% Inhibition ([7]; PPS 198, 10.0 nM): 91%
% Inhibition ([7]; PPS 198, 30.0 nM): 97%
% Inhibition ([7]; PPS 3000, 1.11 nM): 16%
% Inhibition ([7]; PPS 3000, 3.33 nM): 65%
% Inhibition ([7]; PPS 3000, 10.0 nM): 93%
% Inhibition ([7]; PPS 3000, 30.0 nM): 99%
% Inhib [8]: 55%

404137 (antisense e[5mC]*eA*dG*dT*dG*dT*dG*d[5mC]*dA*d[5mC]*dA*d[5mC]*eA*eG) [compound 404137]
% Inhib [6]: 71%
% Inhib [8]: 76%

404138 (antisense e[5mC]*eT*d[5mC]*dA*dG*dT*dG*dT*dG*d[5mC]*dA*d[5mC]*eA*e[5mC]) [compound 404138]
% Inhib [6]: 86%
% Inhib [8]: 76%

404139 (eG*eT*dG*d[5mC]*dA*d[5mC]*dA*d[5mC]*dA*dG*d[5mC]*dT*eG*eA) [compound 404139]
% Inhib [6]: 45%
% Inhib [8]: 80%

404140 (eG*e[5mC]*dA*d[5mC]*dA*d[5mC]*dA*dG*d[5mC]*dT*dG*dA*eG*eG) [compound 404140]
% Inhib [6]: 93%
% Inhib [8]: 73%

ISIS 327161: 3-10-3 MOE gapmer targeted to GCGR (eA*eG*e[5mC]*dT*dG*d[5mC]*dT*dG*dT*dA*d[5mC]*eA*eT*e[5mC])
GCGR mRNA ([1]; HepG2, 25, 50, 100 or 200 nM): reduced GCGR mRNA in a dose-dependent manner

ISIS 388626: GGCATGAGCTTC 2-8-2 MOE, SGLT2 (eG*eG*d[5mC]*dA*dT*dG*dA*dG*d[5mC]*dT*eT*e[5mC])
Plasma glucose levels [3, 14]: significantly reduced
% change in SGLT2 expression relative to saline ([9]; 0.02 umol/kg i.p. twice per week for three weeks): −45%
% change in SGLT2 expression relative to saline ([9]; 0.1 umol/kg i.p. twice per week for three weeks): −60%
% change in SGLT2 expression relative to saline ([9]; 0.5 umol/kg i.p. twice per week for three weeks): −80%
HbA1C [4, 14]: significantly reduced

ISIS 398296: GGTACATGGAAGTC 2-10-2 (6′S)-6′-methyl-Methyleneoxy BNA, Unmodified Cytosines, ApoB (2-10-2 6'-(S)-methyl BNA gapmer, chemistry not fully specified)
ED50 [10]: 8.7 mg/kg
